# Measured values taken from ChEMBL document CHEMBL6074720, “Dihydrofolate reductase inhibitory potential of 1H-indole-based-meldrum linked 1H-1,2,3-triazoles as new anticancer derivatives: In-vitro and in-silico studies” (Eur J Med Chem, 2025).
# Activity calls are given as the source filed them. The calls are words filed in the database; no cut-off is given here.
# How the values were obtained:
# [1] = molecular target: T1, Dihydrofolate reductase (Homo sapiens) (UniProt P00374); test: (§1) Inhibition of DHFR (unknown origin) using dihydro folic acid as substrate preincubated with compound for 5 mins followed by substrate addition and measured after 30 mins in presence of NADPH by absorbance based assay; settings: time 35.0 min
# T1 sequence (whole entry): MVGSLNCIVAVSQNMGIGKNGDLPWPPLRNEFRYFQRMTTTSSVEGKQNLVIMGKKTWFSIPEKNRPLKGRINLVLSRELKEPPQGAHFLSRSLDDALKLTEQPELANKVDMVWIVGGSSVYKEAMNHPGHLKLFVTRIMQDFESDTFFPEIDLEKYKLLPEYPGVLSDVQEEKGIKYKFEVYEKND
# [2] = molecular target: T1, Dihydrofolate reductase (Homo sapiens); test: Inhibition of DHFR (unknown origin) using dihydro folic acid as substrate at 0.5 mM preincubated with compound for 5 mins followed by substrate addition and measured after 30 mins in presence of NADPH by absorbance based assay relative to control; settings: time 35.0 min
# [3] = molecular target: T2, Dihydrofolate reductase (Homo sapiens, UniProt P00374); test: as §1
# T2 sequence (P00374 whole entry): T1 sequence (whole entry)
SMILES,inhibition [1],inhibition [2],IC50 [3]
CC1(C)OC(=O)C(=Cc2cn(CCC#N)c3ccccc23)C(=O)O1,inactive,35.3%,
CC1(C)OC(=O)C(Cc2cn(-c3ccc(F)cc3)nn2)(Cc2cn(Cc3ccc(C#N)cc3)c3ccccc23)C(=O)O1,,91.7%,6.15 µM
CC1(C)OC(=O)C(Cc2cn(-c3ccc(F)cc3)nn2)(Cc2cn(CCC#N)c3ccccc23)C(=O)O1,,92.5%,4.78 µM
C#CCC1(Cc2c[nH]c3ccccc23)C(=O)OC(C)(C)OC1=O,inactive,40.2%,
CC1(C)OC(=O)C(Cc2cn(-c3ccccc3)nn2)(Cc2c[nH]c3ccccc23)C(=O)O1,,89.7%,23.8 µM
CC1(C)OC(=O)C(Cc2cn(-c3ccc(F)cc3)nn2)(Cc2c[nH]c3ccccc23)C(=O)O1,,91.7%,5.1 µM
N#CCCn1cc(C=O)c2ccccc21,inactive,24.8%,
CC1(C)OC(=O)C(Cc2cn(-c3ccc(Br)cc3)nn2)(Cc2cn(Cc3ccc(C#N)cc3)c3ccccc23)C(=O)O1,,91.5%,9.1 µM
Cc1ccccc1-n1cc(CC2(Cc3cn(Cc4ccc(C#N)cc4)c4ccccc34)C(=O)OC(C)(C)OC2=O)nn1,,90.6%,14.5 µM
N#Cc1ccc(Cn2cc(C=O)c3ccccc32)cc1,inactive,25.2%,
Cc1ccccc1-n1cc(CC2(Cc3cn(CCC#N)c4ccccc34)C(=O)OC(C)(C)OC2=O)nn1,,89.4%,18.3 µM
CC1(C)OC(=O)C(Cc2cn(Cc3ccc(C#N)cc3)c3ccccc23)C(=O)O1,inactive,25.5%,
CC1(C)OC(=O)C(Cc2cn(-c3ccc(C(F)(F)F)cc3)nn2)(Cc2cn(CCC#N)c3ccccc23)C(=O)O1,,90.5%,13.9 µM
CC1(C)OC(=O)C(Cc2cn(-c3ccc(Br)cc3)nn2)(Cc2cn(CCC#N)c3ccccc23)C(=O)O1,,91.6%,11.3 µM
C#CCC1(Cc2cn(Cc3ccc(C#N)cc3)c3ccccc23)C(=O)OC(C)(C)OC1=O,inactive,41.4%,
COc1ccc(OC(=O)C(Cc2cn(-c3ccc(F)cc3)nn2)Cc2cn(Cc3ccc(C#N)cc3)c3ccccc23)cc1 (configuration not stated),,90.9%,16.1 µM

SMILES,inhibition [1],inhibition [2],IC50 [3]
COc1ccc(-n2cc(CC3(Cc4c[nH]c5ccccc45)C(=O)OC(C)(C)OC3=O)nn2)cc1,,90.9%,4.36 µM
C#CCC1(Cc2cn(CCC#N)c3ccccc23)C(=O)OC(C)(C)OC1=O,inactive,46.2%,
CC1(C)OC(=O)C(Cc2cn(-c3ccc(C(F)(F)F)cc3)nn2)(Cc2c[nH]c3ccccc23)C(=O)O1,,91.3%,10.1 µM
CC1(C)OC(=O)C(Cc2c[nH]c3ccccc23)C(=O)O1,inactive,36.2%,
COc1ccc(OC(=O)C(Cc2cn(-c3ccc(Br)cc3)nn2)Cc2cn(Cc3ccc(C#N)cc3)c3ccccc23)cc1 (configuration not stated),,86.7%,25.3 µM
CC1(C)OC(=O)C(Cc2cn(-c3ccc(C(F)(F)F)cc3)nn2)(Cc2cn(Cc3ccc(C#N)cc3)c3ccccc23)C(=O)O1,,91.8%,8.71 µM
Cc1ccccc1-n1cc(CC2(Cc3c[nH]c4ccccc34)C(=O)OC(C)(C)OC2=O)nn1,,90.7%,19.6 µM
CC1(C)OC(=O)C(Cc2cn(-c3ccccc3)nn2)(Cc2cn(CCC#N)c3ccccc23)C(=O)O1,,87.3%,27.6 µM
CC1(C)OC(=O)C(Cc2cn(CCC#N)c3ccccc23)C(=O)O1,inactive,38.9%,
COc1ccc(-n2cc(CC3(Cc4cn(Cc5ccc(C#N)cc5)c5ccccc45)C(=O)OC(C)(C)OC3=O)nn2)cc1,,92.3%,3.48 µM
CC1(C)OC(=O)C(=Cc2cn(Cc3ccc(C#N)cc3)c3ccccc23)C(=O)O1,inactive,30.2%,
CC1(C)OC(=O)C(Cc2cn(-c3ccccc3)nn2)(Cc2cn(Cc3ccc(C#N)cc3)c3ccccc23)C(=O)O1,,86.2%,30.4 µM
COc1ccc(OC(=O)C(Cc2cn(-c3ccc(F)cc3)nn2)Cc2cn(CCC#N)c3ccccc23)cc1 (configuration not stated),,91.3%,12.8 µM
CC1(C)OC(=O)C(Cc2cn(-c3ccc(Br)cc3)nn2)(Cc2c[nH]c3ccccc23)C(=O)O1,,91.6%,9.57 µM
COc1ccc(-n2cc(CC3(Cc4cn(CCC#N)c5ccccc45)C(=O)OC(C)(C)OC3=O)nn2)cc1,,91.8%,5.83 µM
